# Data: article PMC4850295, “Using a Genetically Encoded Sensor to Identify Inhibitors of Toxoplasma gondii Ca^2+ Signaling” (The Journal of Biological Chemistry, 2016)
# System: T1, GCaMP5-expressing T. gondii
# T1 construct: whole extracellular parasites expressing GCaMP5 Ca2+ sensor
# Design: species or system GCaMP5-expressing Toxoplasma gondii, extracellular; GCaMP5 fluorescence (cytosolic Ca2+) after 100 uM zaprinast in compound-pretreated extracellular parasites, background-subtracted, relative to zaprinast alone
# Conditions: 100 uM zaprinast stimulation; 10 min pretreatment; mean of two replicates; 0.23 h
# In short: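 Extracellular GCaMP5-expressing parasites in Ringer's solution were pretreated with compounds (single 10 μM dose, two biological replicates) for 10 min, then stimulated with 100 μM zaprinast at 37 °C for 4 min. Fluorescence read at 485/525 nm, basal subtracted, expressed as fold change relative to zaprinast-only parasites.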
row,Compound,fold change in fluorescence relative to zaprinast alone
1,COc1ccc(Nc2nccc(N3CCC(NC(=O)Nc4cc(C)ccc4C)C3)n2)cc1 (stereo not drawn) [GSK1379741A],1.033
2,COc1ccc(Nc2nccc(N3CCC(NC(=O)Nc4cccc(OC)c4)C3)n2)cc1 (stereo not drawn) [GSK1379742A],1.221
3,COc1ccc(Nc2nccc(N3CCC(NC(=O)Nc4ccc5c(c4)OCO5)C3)n2)cc1 (stereo not drawn) [GSK1379745A],1.223
4,COC(=O)c1cccc(NC(=O)NC2CCN(c3ccnc(Nc4ccc(OC)cc4)n3)C2)c1 (stereo not drawn) [GSK1379746A],1.123
5,COc1cc(Nc2nccc(N3CCC(NC(=O)c4cccc(C#N)c4)C3)n2)cc(OC)c1OC (stereo not drawn) [GSK1379751A],1.563
6,COc1cc(Nc2nccc(N3CCC(NC(=O)Nc4cccc(C(C)=O)c4)C3)n2)cc(OC)c1OC (stereo not drawn) [GSK1379753A],1.391
7,COc1cc(Nc2nccc(N3CCC(NC(=O)c4cccc(NC(C)=O)c4)C3)n2)cc(OC)c1OC (stereo not drawn) [GSK1379754A],1.271
8,COc1cc(Nc2nccc(N3CCC(NC(=O)c4cc5ccccc5s4)C3)n2)cc(OC)c1OC (stereo not drawn) [GSK1379760A],1.279
9,COc1cccc(NC(=O)NC2CCN(c3ccnc(Nc4cc(OC)c(OC)c(OC)c4)n3)C2)c1 (stereo not drawn) [GSK1379763A],1.269
10,COc1cc(Nc2nccc(N3CCC(NC(=O)Nc4ccc5c(c4)OCO5)C3)n2)cc(OC)c1OC (stereo not drawn) [GSK1379766A],1.478
11,COC(=O)c1cccc(NC(=O)NC2CCN(c3ccnc(Nc4cc(OC)c(OC)c(OC)c4)n3)C2)c1 (stereo not drawn) [GSK1379767A],1.23
12,COc1ccc(CNC(=O)NC2CCN(c3ccnc(Nc4ccc(F)cc4)n3)CC2)cc1 [GSK1379788A],1.01
13,O=C(Nc1ccccc1F)NC1CCN(c2ccnc(Nc3ccc(F)cc3)n2)CC1 [GSK1379800A],0.9564
14,COc1ccc(Nc2nccc(N3CCC(NC(=O)C(C)c4ccc(Cl)cc4)CC3)n2)cc1 (stereo not drawn) [GSK1379812A],1.185
15,COc1cc(Nc2nccc(N3CCC(NS(=O)(=O)c4ccc(NC(C)=O)cc4)CC3)n2)cc(OC)c1OC [GSK1379825A],1.055
16,O=C(Nc1ccc2c(c1)OCO2)NC1CCN(c2ccnc(NCc3ccc(F)cc3)n2)CC1 [GSK1379859A],0.7305
17,COC(=O)c1cccc(NC(=O)NC2CCN(c3ccnc(NCc4ccc(F)cc4)n3)CC2)c1 [GSK1379860A],0.8716
18,O=C(NCCNc1ccnc(Nc2ccc(F)cc2)n1)c1cc2ccccc2s1 [GSK1379874A],0.6895
19,Cc1ccc(C)c(NC(=O)NCCNc2ccnc(Nc3ccc(F)cc3)n2)c1 [GSK1379878A],1.583
20,COc1cccc(NC(=O)NCCNc2ccnc(Nc3ccc(F)cc3)n2)c1 [GSK1379879A],1.178
21,O=C(NCCNc1ccnc(Nc2ccc(F)cc2)n1)Nc1ccccc1F [GSK1379880A],1.302
22,O=C(NCCNc1ccnc(Nc2ccc(F)cc2)n1)Nc1ccc2c(c1)OCO2 [GSK1379882A],1.425
23,COC(=O)c1cccc(NC(=O)NCCNc2ccnc(Nc3ccc(F)cc3)n2)c1 [GSK1379883A],0.8839
24,COc1ccc(Nc2nccc(NCCNC(=O)c3cc4ccccc4s3)n2)cc1 [GSK1379896A],1.173

row,Compound,fold change in fluorescence relative to zaprinast alone
1,COc1ccc(Nc2nccc(NCCNC(=O)Nc3cc(C)ccc3C)n2)cc1 [GSK1379899A],1.713
2,COc1ccc(Nc2nccc(NCCNC(=O)Nc3ccccc3F)n2)cc1 [GSK1379901A],0.9014
3,O=C(NCCNc1ccnc(NCc2ccc(F)cc2)n1)c1cc2ccccc2s1 [GSK1379944A],0.7055
4,CCNCC(Cc1ccccc1)NC(=O)c1cc(Br)c(-c2ccnc3[nH]ccc23)s1 (stereo not drawn) [GSK1383280A],0.5995
5,CC(C)NCC(Cc1ccccc1)NC(=O)c1cc(Br)c(-c2ccnc3[nH]ccc23)s1 (stereo not drawn) [GSK1383281A],1.049
6,COc1ccc(C[C@@H](CN)NC(=O)c2cc(Br)c(-c3ccnc4[nH]ccc34)s2)cc1 [GSK1389063A],0.8633
7,COc1cc(N2CCN(C(C)C)CC2)ccc1Nc1nc(Nc2ccc(F)cc2C(=O)NC[C@@H](O)CO)c2cc[nH]c2n1 [GSK1392956A],1.138
8,Cc1ccc(NC(=O)c2ccc(Cl)c(Cl)c2)cc1-c1ccc(C(=O)Nc2ccncc2)cc1 [GSK1398460A],1.557
9,Cc1ccc(NC(=O)c2cccc(C#N)c2)cc1-c1ccc(C(=O)Nc2ccncc2)cc1 [GSK1398463A],1.609
10,Cc1ccc(NC(=O)Nc2cccc(Cl)c2)cc1-c1ccc(C(=O)Nc2ccncc2)cc1 [GSK1398468A],0.4262
11,Cc1ccc(NC(=O)Nc2ccc(Cl)c(C(F)(F)F)c2)cc1-c1ccc(C(=O)Nc2ccncc2)cc1 [GSK1398470A],0.581
12,Cc1ccc(C)c(NC(=O)Nc2ccc(C)c(-c3ccc(C(=O)Nc4ccncc4)cc3)c2)c1 [GSK1398473A],1.092
13,COc1cccc(NC(=O)Nc2ccc(C)c(-c3ccc(C(=O)Nc4ccncc4)cc3)c2)c1 [GSK1398474A],1.231
14,Cc1cc(-c2ccnc(Nc3cccc(C#N)c3)n2)cc(C)c1O [GSK1440913A],0.3868
15,NC[C@H](Cc1ccc(C(F)(F)F)cc1)NC(=O)c1cc(Br)c(-c2ccnc3[nH]ccc23)s1 [GSK1487252A],0.4926
16,CNC(=O)c1ccccc1Nc1nc(Nc2cccc(CS(C)(=O)=O)c2)ncc1C [GSK1520489A],1.293
17,NS(=O)(=O)c1cccc(-c2ccc3ncc(N4CCOCC4)nc3c2)c1 [GSK1535721A],1.22
18,COc1ccc(Nc2ncc(C#N)c(Nc3ccccc3C(N)=O)n2)cc1N1CCN(C)CC1 [GSK1558669A],1.412
19,CNC(=O)c1ccccc1Nc1nc(Nc2ccc(N3CCOCC3)cc2)ncc1Cl [GSK1576028A],1.198
20,NC[C@H](CC1CCCCC1)NC(=O)c1cc(Br)c(-c2ccnc3[nH]ccc23)s1 [GSK1581427A],1.128
21,NC[C@H](CC1CCCCC1)NC(=O)c1ccc(-c2ccnc3[nH]ccc23)s1 [GSK1581428A],1.197
22,Nc1ncc(-c2ccc3nccc(-c4ccncc4)c3c2)cc1S(=O)(=O)N1CCOCC1 [GSK1627798A],1.041
23,CC(=O)N1CCN(c2ccc(Nc3nccc(-c4sc(C(C)C)nc4-c4cccc(NS(=O)(=O)c5ccccc5)c4)n3)cn2)CC1 [GSK1645872A],0.8017
24,CC(C)c1nc(-c2cccc(NS(=O)(=O)c3ccccc3)c2)c(-c2ccnc(Nc3ccc4c(c3)CN(C)CC4)n2)s1 [GSK1649598A],0.9359
